Measured values from PMC8190356, “The Effect of the EGFR - Targeting Compound 3-[(4-Phenylpyrimidin-2-yl) Amino] Benzene-1-Sulfonamide (13f) against Cholangiocarcinoma Cell Lines” (Asian Pacific Journal of Cancer Prevention : APJCP, 2021).

Target: T1, tyrosine kinase of EGFR (TK-EGFR) (Homo sapiens, UniProt P00533)
T1 construct: tyrosine kinase of EGFR (TK-EGFR), recombinant protein from E. coli
Experiment: ADP-Glo kinase assay with recombinant TK-EGFR, […] ATP
Assay type: biochemical

T1 sequence (P00533 25-1210): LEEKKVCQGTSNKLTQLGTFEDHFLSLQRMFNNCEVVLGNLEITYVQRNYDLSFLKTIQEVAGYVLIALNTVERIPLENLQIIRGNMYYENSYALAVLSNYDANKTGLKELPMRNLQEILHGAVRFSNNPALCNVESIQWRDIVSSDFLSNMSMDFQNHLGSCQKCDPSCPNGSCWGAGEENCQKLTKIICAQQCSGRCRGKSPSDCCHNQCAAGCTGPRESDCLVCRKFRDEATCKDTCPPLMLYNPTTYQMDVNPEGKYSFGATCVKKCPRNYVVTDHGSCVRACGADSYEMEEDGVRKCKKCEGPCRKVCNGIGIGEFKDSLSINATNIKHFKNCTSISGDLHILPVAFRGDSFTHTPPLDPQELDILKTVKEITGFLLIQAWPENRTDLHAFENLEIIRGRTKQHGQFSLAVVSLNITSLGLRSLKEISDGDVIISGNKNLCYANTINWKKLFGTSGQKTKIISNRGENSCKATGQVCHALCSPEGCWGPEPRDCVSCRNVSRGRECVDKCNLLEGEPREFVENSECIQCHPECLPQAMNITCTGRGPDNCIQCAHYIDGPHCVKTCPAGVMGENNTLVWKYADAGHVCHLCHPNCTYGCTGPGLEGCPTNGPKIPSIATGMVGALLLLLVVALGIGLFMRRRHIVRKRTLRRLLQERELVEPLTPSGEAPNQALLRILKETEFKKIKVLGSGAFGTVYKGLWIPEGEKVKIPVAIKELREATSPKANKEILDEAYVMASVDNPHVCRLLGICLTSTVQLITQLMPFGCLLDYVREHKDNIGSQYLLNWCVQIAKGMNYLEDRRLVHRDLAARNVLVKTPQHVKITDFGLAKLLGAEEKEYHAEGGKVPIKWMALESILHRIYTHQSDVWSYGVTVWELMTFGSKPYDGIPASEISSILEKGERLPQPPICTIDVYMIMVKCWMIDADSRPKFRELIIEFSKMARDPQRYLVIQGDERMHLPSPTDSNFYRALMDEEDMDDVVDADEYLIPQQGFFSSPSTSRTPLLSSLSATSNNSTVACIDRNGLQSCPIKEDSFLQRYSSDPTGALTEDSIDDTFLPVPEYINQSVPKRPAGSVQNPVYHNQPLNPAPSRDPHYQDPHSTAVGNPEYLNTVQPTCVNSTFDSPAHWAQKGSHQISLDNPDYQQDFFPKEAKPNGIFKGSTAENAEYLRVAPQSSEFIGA

## NS(=O)(=O)c1cccc(Nc2nccc(-c3ccccc3)n2)c1 [13f, 3-[(4-phenylpyrimidin-2-yl)amino] benzene-1-sulfonamide]
  IC50: 22.7 nM
